From PubChem BioAssay (NCI)
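Step 1: Grow cells in 96-well plates. Step 2: Expose to compound for 48 hours at 5 concentrations. Step 3: Interpolate endpoints linearly; if unreached, use highest concentration. Abbreviation: GI50, concentration required for 50% inhibition of growth. TGI: concentration producing complete growth inhibition.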

What was measured:
Experiment in all cases: growth of human tumour cells (NCI), 48 h
COLO 205 colon = test system: COLO 205 colon
HCT-116 colon = test system: HCT-116 colon
HCT-15 colon = test system: HCT-15 colon
HOP-92 NSCLC = test system: HOP-92 NSCLC
M14 melanoma = test system: M14 melanoma
MDA-MB-435 = test system: MDA-MB-435
NCI-H23 lung = test system: NCI-H23 lung
PC-3 prostate = test system: PC-3 prostate
SNB-75 CNS = test system: SNB-75 CNS
UACC-257 melanoma = test system: UACC-257 melanoma

## CCc1n[nH]c(=O)n1CCCCCCCCCCCCn1c(CC)n[nH]c1=O
COLO 205 colon
  TGI: 75.5 µM
HCT-116 colon
  TGI: > 100 µM
HCT-15 colon
  TGI: > 100 µM
HOP-92 NSCLC
  TGI: > 100 µM
M14 melanoma
  TGI: 95.8 µM
MDA-MB-435
  TGI: 76.3 µM
NCI-H23 lung
  TGI: 94.4 µM
PC-3 prostate
  TGI: > 100 µM
SNB-75 CNS
  TGI: 80.6 µM
UACC-257 melanoma
  TGI: 40.2 µM

## CN1CCC(CNc2cc(C3(C(=O)Nc4cc(C(=O)Nc5ccc(Cl)c(C(F)(F)F)c5)ccc4F)CC3)ncn2)CC1
HCT-15 colon
  GI50: 1.6 µM
  TGI: 4.19 µM
MDA-MB-435
  GI50: 1.84 µM
  TGI: 4.04 µM
NCI-H23 lung
  GI50: 1.94 µM
  TGI: 4.57 µM
PC-3 prostate
  GI50: 1.04 µM
  TGI: 3.3 µM
SNB-75 CNS
  GI50: 0.955 µM
  TGI: 2.86 µM

## CN(C)CCNc1ccc2c(=O)n(CCN(C)C)c(=O)n3c4ccc(O)cc4c(=O)c1c23
COLO 205 colon
  TGI: 0.099 µM
HCT-116 colon
  TGI: 0.308 µM
HCT-15 colon
  TGI: 4.35 µM
HOP-92 NSCLC
  TGI: 0.0941 µM
M14 melanoma
  TGI: 1.86 µM
MDA-MB-435
  TGI: 0.259 µM
NCI-H23 lung
  TGI: 0.186 µM
PC-3 prostate
  TGI: 4.52 µM
SNB-75 CNS
  TGI: 0.305 µM
UACC-257 melanoma
  TGI: 0.795 µM

## Cn1c(=O)c2c(nc3n(CC(O)CCl)c(=O)ccn23)n(C)c1=O (centres undefined)
COLO 205 colon
  TGI: > 100 µM
HCT-116 colon
  TGI: > 100 µM
HCT-15 colon
  TGI: > 100 µM
HOP-92 NSCLC
  TGI: > 100 µM
M14 melanoma
  TGI: > 100 µM
MDA-MB-435
  TGI: > 100 µM
NCI-H23 lung
  TGI: > 100 µM
PC-3 prostate
  TGI: > 100 µM
SNB-75 CNS
  TGI: > 100 µM
UACC-257 melanoma
  TGI: > 100 µM

## NC(=O)Nc1c(Cl)cc(S(N)(=O)=O)cc1Cl
COLO 205 colon
  TGI: > 100 µM
HCT-116 colon
  TGI: > 100 µM
HCT-15 colon
  TGI: > 100 µM
HOP-92 NSCLC
  TGI: > 100 µM
M14 melanoma
  TGI: > 100 µM
MDA-MB-435
  TGI: > 100 µM
NCI-H23 lung
  TGI: > 100 µM
SNB-75 CNS
  TGI: > 100 µM
UACC-257 melanoma
  TGI: > 100 µM

## O=c1[nH]c(Nc2ccccc2)nc2c1ncn2CC(O)CSCCO (centres undefined)
COLO 205 colon
  TGI: > 100 µM
HCT-116 colon
  TGI: > 100 µM
HCT-15 colon
  TGI: > 100 µM
HOP-92 NSCLC
  TGI: > 100 µM
M14 melanoma
  TGI: > 100 µM
MDA-MB-435
  TGI: > 100 µM
NCI-H23 lung
  TGI: > 100 µM
PC-3 prostate
  TGI: > 100 µM
SNB-75 CNS
  TGI: > 100 µM
UACC-257 melanoma
  TGI: > 100 µM

## C#CCNC(CSSCC(N)C(=O)O)C(=O)O (centres undefined)
COLO 205 colon
  TGI: > 100 µM
HCT-116 colon
  TGI: > 100 µM
HCT-15 colon
  TGI: > 100 µM
HOP-92 NSCLC
  TGI: > 100 µM
M14 melanoma
  TGI: > 100 µM
MDA-MB-435
  TGI: > 100 µM
NCI-H23 lung
  TGI: > 100 µM
PC-3 prostate
  TGI: > 100 µM
SNB-75 CNS
  TGI: > 100 µM
UACC-257 melanoma
  TGI: > 100 µM

## O=c1[nH]c2nc3ccccc3c(=O)n2/c1=C/c1ccc(Cl)cc1
COLO 205 colon
  TGI: > 100 µM
HCT-116 colon
  TGI: > 100 µM
HCT-15 colon
  TGI: > 100 µM
HOP-92 NSCLC
  TGI: > 100 µM
M14 melanoma
  TGI: > 100 µM
MDA-MB-435
  TGI: 58.5 µM
NCI-H23 lung
  TGI: > 100 µM
PC-3 prostate
  TGI: > 100 µM
UACC-257 melanoma
  TGI: > 100 µM

## O=C(/C=C(/C=C/c1ccc2[nH]ccc2c1)OB(F)F)/C=C/c1ccc2[nH]ccc2c1
HCT-15 colon
  GI50: 0.653 µM
  TGI: 4.43 µM
HOP-92 NSCLC
  GI50: 2.68 µM
  TGI: > 100 µM
PC-3 prostate
  GI50: 1.49 µM
  TGI: > 100 µM
SNB-75 CNS
  GI50: 2.72 µM
  TGI: 15.7 µM
UACC-257 melanoma
  GI50: 12.2 µM
  TGI: > 100 µM

## Cc1ccc2c(c1)-c1nc(N)c(C#N)c(-c3ccc(Cl)cc3)c1CCS2(=O)=O
COLO 205 colon
  TGI: 65.6 µM
HCT-116 colon
  TGI: > 100 µM
HCT-15 colon
  TGI: > 100 µM
HOP-92 NSCLC
  TGI: > 100 µM
MDA-MB-435
  TGI: > 100 µM
NCI-H23 lung
  TGI: > 100 µM
PC-3 prostate
  TGI: > 100 µM
SNB-75 CNS
  TGI: > 100 µM
UACC-257 melanoma
  TGI: > 100 µM

## CCn1nc(C)c2c1C(=O)NCC(=O)N2
COLO 205 colon
  TGI: > 100 µM
HCT-116 colon
  TGI: > 100 µM
HCT-15 colon
  TGI: > 100 µM
HOP-92 NSCLC
  TGI: > 100 µM
M14 melanoma
  TGI: > 100 µM
MDA-MB-435
  TGI: > 100 µM
NCI-H23 lung
  TGI: > 100 µM
PC-3 prostate
  TGI: > 100 µM
SNB-75 CNS
  TGI: > 100 µM
UACC-257 melanoma
  TGI: > 100 µM

## COC1CC(N)(c2ccccc2)C(O)C(C)O1 (centres undefined)
COLO 205 colon
  TGI: > 100 µM
HCT-116 colon
  TGI: > 100 µM
HCT-15 colon
  TGI: > 100 µM
HOP-92 NSCLC
  TGI: > 100 µM
M14 melanoma
  TGI: > 100 µM
MDA-MB-435
  TGI: > 100 µM
NCI-H23 lung
  TGI: > 100 µM
PC-3 prostate
  TGI: > 100 µM
SNB-75 CNS
  TGI: > 100 µM
UACC-257 melanoma
  TGI: > 100 µM

## CC(N=NNc1ccc(-c2nc3ccccc3[nH]2)cc1)C(=O)O (centres undefined)
COLO 205 colon
  TGI: > 100 µM
HCT-116 colon
  TGI: > 100 µM
HCT-15 colon
  TGI: 61.6 µM
HOP-92 NSCLC
  TGI: > 100 µM
M14 melanoma
  TGI: > 100 µM
MDA-MB-435
  TGI: > 100 µM
NCI-H23 lung
  TGI: > 100 µM
PC-3 prostate
  TGI: > 100 µM
SNB-75 CNS
  TGI: > 100 µM
UACC-257 melanoma
  TGI: > 100 µM

## O=c1[nH]/c(=C/c2ccc(OCc3ccccc3)cn2)c(=O)[nH]/c1=C/c1ccccc1
COLO 205 colon
  TGI: > 25.4 µM
HCT-116 colon
  TGI: > 100 µM
HCT-15 colon
  TGI: > 46.4 µM
HOP-92 NSCLC
  TGI: > 100 µM
M14 melanoma
  TGI: > 100 µM
MDA-MB-435
  TGI: 0.567 µM
PC-3 prostate
  TGI: > 100 µM
SNB-75 CNS
  TGI: 0.0706 µM
UACC-257 melanoma
  TGI: > 100 µM

## Cc1ccc(C(=N)c2ccccc2Cc2cccc3ccccc23)c2ccccc12
COLO 205 colon
  TGI: > 100 µM
HCT-116 colon
  TGI: > 100 µM
HCT-15 colon
  TGI: > 100 µM
HOP-92 NSCLC
  TGI: > 100 µM
M14 melanoma
  TGI: > 100 µM
MDA-MB-435
  TGI: > 100 µM
NCI-H23 lung
  TGI: > 100 µM
PC-3 prostate
  TGI: > 100 µM
SNB-75 CNS
  TGI: > 100 µM
UACC-257 melanoma
  TGI: > 100 µM

## COc1cc(/C=C2\C(=O)N(c3cccc([N+](=O)[O-])c3)C(c3ccccc3)S2(=O)=O)cc(OC)c1OC (centres undefined)
COLO 205 colon
  TGI: > 100 µM
HCT-116 colon
  TGI: > 100 µM
HCT-15 colon
  TGI: > 100 µM
HOP-92 NSCLC
  TGI: > 100 µM
M14 melanoma
  TGI: > 100 µM
MDA-MB-435
  TGI: > 100 µM
NCI-H23 lung
  TGI: > 100 µM
PC-3 prostate
  TGI: > 100 µM
SNB-75 CNS
  TGI: > 100 µM
UACC-257 melanoma
  TGI: > 100 µM

## COc1ccc2c(c1)C(=O)CC1c3cnccc3C(=O)N21 (centres undefined)
COLO 205 colon
  TGI: > 100 µM
HCT-116 colon
  TGI: > 100 µM
HCT-15 colon
  TGI: > 100 µM
HOP-92 NSCLC
  TGI: > 100 µM
M14 melanoma
  TGI: > 100 µM
MDA-MB-435
  TGI: > 31.6 µM
NCI-H23 lung
  TGI: > 100 µM
PC-3 prostate
  TGI: > 100 µM
SNB-75 CNS
  TGI: > 100 µM
UACC-257 melanoma
  TGI: > 100 µM

## CC(=O)NC1C(OCc2ccccc2)OC(CO)C(O)C1OCC(=O)N1CCCC1C(=O)N[C@@H](CCC(=O)NCCCCNc1c2ccccc2nc2cccc([N+](=O)[O-])c12)C(N)=O (some centres undefined)
COLO 205 colon
  TGI: 46.4 µM
HCT-116 colon
  TGI: 64.6 µM
HCT-15 colon
  TGI: > 100 µM
HOP-92 NSCLC
  TGI: 28.7 µM
M14 melanoma
  TGI: 40.5 µM
MDA-MB-435
  TGI: 54.5 µM
NCI-H23 lung
  TGI: 40.8 µM
PC-3 prostate
  TGI: 60.3 µM
SNB-75 CNS
  TGI: 65.8 µM

## CCCCCOc1ccc(C=Nc2ccc(CCc3ccc(N=Cc4ccc(OCCCCC)cc4)cc3)cc2)cc1
COLO 205 colon
  TGI: > 100 µM
HCT-116 colon
  TGI: > 100 µM
HCT-15 colon
  TGI: > 100 µM
HOP-92 NSCLC
  TGI: > 100 µM
NCI-H23 lung
  TGI: > 100 µM
SNB-75 CNS
  TGI: > 100 µM
UACC-257 melanoma
  TGI: > 100 µM

## CC1CC[C@@]2(OC1)OC1C[C@H]3[C@@H]4CC=C5CC(OC6OC(CO)C(OC7OC(CO)C(O)C(OC8OCC(O)C(O)C8O)C7OC7OC(CO)C(OC8OC(C)C(OC9OC(C)C(O)C(O)C9O)C(O)C8O)C(O)C7O)C(O)C6O)CCC5(C)[C@H]4CCC3(C)C1[C@@H]2C (some centres undefined)
COLO 205 colon
  TGI: 15.6 µM
HCT-116 colon
  TGI: 15.3 µM
HCT-15 colon
  TGI: 18.9 µM
HOP-92 NSCLC
  TGI: 14.8 µM
M14 melanoma
  TGI: 10.1 µM
MDA-MB-435
  TGI: 18.4 µM
NCI-H23 lung
  TGI: 16.7 µM
PC-3 prostate
  TGI: 11.7 µM
UACC-257 melanoma
  TGI: 18.1 µM

## c1ccc(-c2csc3c4ccccc4c4ccccc4[n+]23)cc1
COLO 205 colon
  TGI: 7.73 µM
HCT-116 colon
  TGI: 12.1 µM
HCT-15 colon
  TGI: > 78.7 µM
HOP-92 NSCLC
  TGI: 24.9 µM
M14 melanoma
  TGI: 22 µM
NCI-H23 lung
  TGI: 11.9 µM
SNB-75 CNS
  TGI: 6.98 µM
UACC-257 melanoma
  TGI: 3.27 µM
